≈ marks a conversion by molar mass, not a printed value. Where two headings read alike, the source gives them in different places. Values belong to the molecule of their own block, whether it stands above or below them.
How the values were obtained:
[1] = Parallel artificial membrane permeability assay (PAMPA); assay type: in vitro ADME; conditions: passive permeability
Excerpt: (§1) Preliminary In Vitro Pharmacokinetic Assays.

[2] = system: primary murine Hh-dependent MB cell line (MERP); assay: Antiproliferation in primary Hh-dependent MB cells (MERP); assay type: cell-based; conditions: Mus musculus
Method: Secondary In Vitro Evaluation. Based on their activity in ASZ cells, several compounds were evaluated further in a primary murine Hh-dependent MB cell line (MERP).
(§2) General Information for Cell Culture Studies Protocols for general cell culture, qPCR, and Hh inhibition ASZ cells are as previously described.
(§3) General Information for Cell Culture Studies. Protocols for general cell culture, qPCR, and Hh inhibition ASZ cells are as previously described.

[3] = Metabolic half-life and clearance (HLM); assay type: in vitro ADME
CYP3A4 = CYP3A4 (Homo sapiens, UniProt P08684); assay: CYP3A4 inhibition
Method: Additionally, CYP3A4 inhibition and P-glycoprotein (P-gp) efflux of each compound were evaluated.

P-glycoprotein (P-gp) = P-glycoprotein (P-gp) (Homo sapiens, UniProt P08183); assay: P-glycoprotein (P-gp) efflux; assay type: in vitro ADME; conditions: Table P1
Excerpt: as §1

[4] = system: Gli1 mRNA levels in the murine BCC cell line ASZ-001 (Hh pathway); assay: Hh pathway inhibition: endogenous Gli1 mRNA (qRT-PCR) in ASZ-001 cells; assay type: cell-based
Method: Initial Hh inhibition studies.
as §2, §3
Gene Expression Assay Protocol (ASZ-001): Cells are seeded (10,000 cells per well; 100 μL total volume per well) in a 96-well tissue culture plate. After 24 h of incubation (37° C., 5% CO2), growth media was removed and replaced with low FBS media. Cells were incubated for an additional 24 h. After this time, DMSO (vehicle control) and liposomes (Aqueous Solution) were added to the wells. […]
Rt-PCR Protocol: Following treatment and incubation periods, both RNA extraction and cDNA synthesis were performed using a TaqMan Cells-to-CT (fast) kit. cDNA synthesis utilized a BioRad MyCycler and was programmed according to the manufacturer's instructions. Quantitative RT-PCR was performed on an ABI 7500 system and made use of the following TaqMan Gene Expression Probes: mouse ActB (Mm00607939_s1) and mouse Gli1 (Mm00494654_m1). Relative gene expression levels were computed via ΔΔCT method using GraphPad Prism. Corresponding IC50 values were calculated as mean±SEM for at least three separate experiments performed in triplicate.

[5] = Mus musculus, ASZ001, Table P2, ASZ cells, Gli1 mRNA, 48 h incubation, read-out: IC50

Sequence of CYP3A4 (P08684 whole entry): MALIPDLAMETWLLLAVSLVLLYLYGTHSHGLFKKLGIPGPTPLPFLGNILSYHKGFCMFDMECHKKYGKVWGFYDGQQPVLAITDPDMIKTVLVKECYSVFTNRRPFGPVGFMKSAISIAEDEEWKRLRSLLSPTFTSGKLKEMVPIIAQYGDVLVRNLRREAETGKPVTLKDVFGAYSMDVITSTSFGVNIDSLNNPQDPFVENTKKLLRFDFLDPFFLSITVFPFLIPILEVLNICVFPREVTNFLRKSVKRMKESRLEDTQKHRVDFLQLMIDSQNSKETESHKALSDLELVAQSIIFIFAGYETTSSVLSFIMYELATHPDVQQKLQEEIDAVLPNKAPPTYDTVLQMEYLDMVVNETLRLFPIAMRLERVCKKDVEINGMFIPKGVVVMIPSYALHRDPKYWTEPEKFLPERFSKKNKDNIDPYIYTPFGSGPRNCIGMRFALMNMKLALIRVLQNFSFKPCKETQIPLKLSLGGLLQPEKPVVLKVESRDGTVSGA
Sequence of P-glycoprotein (P-gp) (P08183 whole entry): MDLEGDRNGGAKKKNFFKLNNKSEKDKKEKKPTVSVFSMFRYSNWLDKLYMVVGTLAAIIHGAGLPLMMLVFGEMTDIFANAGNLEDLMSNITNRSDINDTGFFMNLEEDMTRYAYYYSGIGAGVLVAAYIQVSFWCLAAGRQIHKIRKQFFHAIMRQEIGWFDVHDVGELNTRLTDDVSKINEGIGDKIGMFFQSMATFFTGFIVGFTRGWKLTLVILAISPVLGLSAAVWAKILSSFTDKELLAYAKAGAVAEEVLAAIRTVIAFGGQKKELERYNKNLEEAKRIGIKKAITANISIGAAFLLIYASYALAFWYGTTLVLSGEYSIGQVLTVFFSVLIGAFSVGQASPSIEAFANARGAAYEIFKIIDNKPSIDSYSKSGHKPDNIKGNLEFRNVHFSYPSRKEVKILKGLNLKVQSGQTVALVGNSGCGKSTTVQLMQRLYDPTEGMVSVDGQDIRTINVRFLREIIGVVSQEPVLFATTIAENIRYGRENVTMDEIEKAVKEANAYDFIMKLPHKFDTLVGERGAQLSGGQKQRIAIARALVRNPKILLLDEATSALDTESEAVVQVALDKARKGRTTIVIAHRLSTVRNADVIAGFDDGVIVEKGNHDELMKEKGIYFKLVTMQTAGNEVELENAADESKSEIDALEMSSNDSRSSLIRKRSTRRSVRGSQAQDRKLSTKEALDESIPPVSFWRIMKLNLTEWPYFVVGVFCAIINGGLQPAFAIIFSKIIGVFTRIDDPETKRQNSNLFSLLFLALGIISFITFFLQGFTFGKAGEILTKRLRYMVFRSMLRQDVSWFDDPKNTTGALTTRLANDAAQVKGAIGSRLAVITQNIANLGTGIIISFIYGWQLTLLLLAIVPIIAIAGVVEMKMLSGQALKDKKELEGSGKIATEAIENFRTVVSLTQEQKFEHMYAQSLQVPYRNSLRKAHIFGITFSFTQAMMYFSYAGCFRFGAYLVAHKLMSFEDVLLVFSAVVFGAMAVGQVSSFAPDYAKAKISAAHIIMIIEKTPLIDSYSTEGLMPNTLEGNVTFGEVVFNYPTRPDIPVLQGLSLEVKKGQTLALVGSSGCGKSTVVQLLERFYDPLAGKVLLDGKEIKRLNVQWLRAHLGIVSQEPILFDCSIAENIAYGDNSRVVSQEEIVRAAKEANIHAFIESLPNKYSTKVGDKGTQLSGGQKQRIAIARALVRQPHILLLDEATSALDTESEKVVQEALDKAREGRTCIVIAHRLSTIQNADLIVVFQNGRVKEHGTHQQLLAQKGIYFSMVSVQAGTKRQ

SMILES: C[C@@]1(c2ccc(Cl)cc2Cl)OC[C@@H](COc2ccc(N3CCN(c4ccc(NC(=O)c5cccnc5)cc4)CC3)cc2)O1 [Compound 13, N-(4-(4-(4-(((2R,4R)-2-(2,4-dichlorophenyl)-2-methyl-1,3-dioxolan-4-yl)methoxy)phenyl)piperazin-1-yl)phenyl)nicotinamide]
PAMPA [1]: Poor
Solubility (Solubility): 4.2 nM (≈ 2.6 ng/mL)
IC50 ([2]; Table 6): > 10 µM
T1/2 (HLM, min) [3]: significantly different half-lives

SMILES: C[C@@]1(c2ccc(Cl)cc2Cl)OC[C@@H](COc2ccc(N3CCN(c4ccc(NC(=O)c5cccc(O)c5)cc4)CC3)cc2)O1 [Compound 27, N-(4-(4-(4-(((2R,4R)-2-(2,4-dichlorophenyl)-2-methyl-1,3-dioxolan-4-yl)methoxy)phenyl)piperazin-1-yl)phenyl)-3-hydroxybenzamide]
Solubility (Solubility): 1.4 nM (≈ 0.888 ng/mL)
IC50 ([2]; Table 6): 2.8 ± 1.5 µM
T1/2 (HLM, min) [3]: >231 min

SMILES: C[C@]1(c2ccc(Cl)cc2Cl)OC[C@@H](COc2ccc(N3CCN(c4ccc(NC(=O)c5cccc(O)c5)cc4)CC3)cc2)O1 [Compound 30, N-(4-(4-(4-(((2S,4R)-2-(2,4-dichlorophenyl)-2-methyl-1,3-dioxolan-4-yl)methoxy)phenyl)piperazin-1-yl)phenyl)-3-hydroxybenzamide]
PAMPA [1]: Poor
Solubility (Solubility): 1.6 nM (≈ 1.02 ng/mL)
IC50 ([2]; Table 6): 0.35 ± 0.06 µM
T1/2 (HLM, min) [3]: did not significantly change
IC50 (CYP3A4; read-out: CYP3A4, Table 9): 11.4 µM

SMILES: CC(=O)c1cccc(C(=O)Nc2ccc(N3CCN(c4ccc(OC[C@@H]5CO[C@](C)(c6ccc(Cl)cc6Cl)O5)cc4)CC3)cc2)c1 [Compound 34, 3-acetyl-N-(4-(4-(4-(((2S,4R)-2-(2,4-dichlorophenyl)-2-methyl-1,3-dioxolan-4-yl)methoxy)phenyl)piperazin-1-yl)phenyl)benzamide]
Solubility (Solubility): 1.4 nM (≈ 0.925 ng/mL)
GI50 ([2]; Table 7): 1 ± 0.3 µM
T1/2 (HLM, min) [3]: 11.4 ± 0.06 min
IC50 (CYP3A4): > 30 µM

SMILES: C[C@@]1(c2ccc(Cl)cc2Cl)OC[C@@H](COc2ccc(N3CCN(c4ccc(NC(=O)NN)cc4)CC3)cc2)O1 [Compound 39, N-(4-(4-(4-(((2R,4R)-2-(2,4-dichlorophenyl)-2-methyl-1,3-dioxolan-4-yl)methoxy)phenyl)piperazin-1-yl)phenyl)hydrazinecarboxamide]
Solubility (Solubility): 9.3 nM (≈ 5.32 ng/mL)
IC50 ([2]; Table 8): 0.5 ± 0.4 µM
T1/2 (HLM, min) [3]: 20.1 ± 0.6 min
IC50 (CYP3A4): > 30 µM

SMILES: C[C@]1(c2ccc(Cl)cc2Cl)OC[C@@H](COc2ccc(N3CCN(c4ccc(NC(=O)NN)cc4)CC3)cc2)O1 [Compound 40, N-(4-(4-(4-(((2S,4R)-2-(2,4-dichlorophenyl)-2-methyl-1,3-dioxolan-4-yl)methoxy)phenyl)piperazin-1-yl)phenyl)hydrazinecarboxamide]
Solubility (Solubility): 1.4 nM (≈ 0.801 ng/mL)
IC50 ([2]; Table 8): 2.8 ± 0.9 µM
T1/2 (HLM, min) [3]: 11.5 ± 0.1 min
IC50 (CYP3A4): > 30 µM

SMILES: C[C@]1(c2ccc(F)cc2F)C[C@H](COc2ccc(N3CCN(c4ccc(NC(=O)Oc5ccccc5)cc4)CC3)cc2)CO1 [Compound P21, phenyl (4-(4-(4-(((3R,5R)-5-(2,4-difluorophenyl)-5-methyltetrahydrofuran-3-yl)methoxy)phenyl)piperazin-1-yl)phenyl)carbamate]
IC50 ([4]; Mus musculus, ASZ001, 48 h): > 10 µM

Second part, led by results:

P-gp (Efflux) (P-glycoprotein (P-gp)): No Efflux
CYP3A4 IC50 (μM) (CYP3A4; Table P1): decreased CYP3A4 inhibition
IC50 (CYP3A4; human): > 20 µM
IC50 ([4]; Mus musculus, ASZ001, Table P1, ASZ cells, Gli1 mRNA, 48 h incubation, read-out: IC50): 0.19 µM
SMILES: CC[C@@H](C)n1ncn(-c2ccc(N3CCN(c4ccc(OC[C@@H]5CO[C@@](C)(c6ccc(F)cc6F)C5)cc4)CC3)cc2)c1=O [Compound P1, 2-((R)-sec-butyl)-4-(4-(4-(4-(((3R,5R)-5-(2,4-difluorophenyl)-5-methyltetrahydrofuran-3-yl)methoxy)phenyl)-piperazin-1-yl)phenyl)-2,4-dihydro-3H-1,2,4-triazol-3-one]
IC50 ([2]; Table P1): 0.61 ± 0.12 µM
times more potent than PSZ ([4]; ASZ cells, IC50 ratio vs PSZ): 2.5 times

IC50 [4, 5]: 0.74 ± 0.15 µM
SMILES: C[C@]1(c2ccc(F)cc2F)C[C@H](COc2ccc(N3CCN(c4ccc([N+](=O)[O-])cc4)CC3)cc2)CO1 [Compound P19, 1-(4-(((3R,5R)-5-(2,4-difluorophenyl)-5-methyltetrahydrofuran-3-yl)methoxy)phenyl)-4-(4-nitrophenyl)piperazine]

IC50 [4, 5]: 0.33 ± 0.12 µM
SMILES: C[C@]1(c2ccc(F)cc2F)C[C@H](COc2ccc(N3CCN(c4ccc(N)cc4)CC3)cc2)CO1 [Compound P20, 4-(4-(4-(((3R,5R)-5-(2,4-difluorophenyl)-5-methyltetrahydrofuran-3-yl)methoxy)phenyl)piperazin-1-yl)aniline]

IC50 [4, 5]: 0.22 ± 0.08 µM
SMILES: C[C@]1(c2ccc(F)cc2F)C[C@H](COc2ccc(N3CCN(c4ccc(NC(=O)NN)cc4)CC3)cc2)CO1 [Compound P22, N-(4-(4-(4-(((3R,5R)-5-(2,4-difluorophenyl)-5-methyltetrahydrofuran-3-yl)methoxy)phenyl)piperazin-1-yl)phenyl)hydrazinecarboxamide]

IC50 [4, 5]: 0.19 ± 0.1 µM
SMILES: C[C@]1(c2ccc(F)cc2F)C[C@H](COc2ccc(N3CCN(c4ccc(-n5cn[nH]c5=O)cc4)CC3)cc2)CO1 [Compound P23, 4-(4-(4-(4-(((3R,5R)-5-(2,4-difluorophenyl)-5-methyltetrahydrofuran-3-yl)methoxy)phenyl)piperazin-1-yl)phenyl)-2,4-dihydro-3H-1,2,4-triazol-3-one]

IC50 [4, 5]: 0.024 ± 0.009 µM
SMILES: CC(=O)c1cccc(C(=O)Nc2ccc(N3CCN(c4ccc(OC[C@@H]5CO[C@@](C)(c6ccc(F)cc6F)C5)cc4)CC3)cc2)c1 [Compound P24, 3-acetyl-N-(4-(4-(4-(((3R,5R)-5-(2,4-difluorophenyl)-5-methyltetrahydrofuran-3-yl)methoxy)phenyl)piperazin-1-yl)phenyl)benzamide]

IC50 [4, 5]: 0.19 ± 0.03 µM
SMILES: C[C@]1(c2ccc(F)cc2F)C[C@H](COc2ccc(N3CCN(c4ccc(NC(=O)c5cccc(O)c5)cc4)CC3)cc2)CO1 [Compound P25, N-(4-(4-(4-(((3R,5R)-5-(2,4-difluorophenyl)-5-methyltetrahydrofuran-3-yl)methoxy)phenyl)piperazin-1-yl)phenyl)-3-hydroxybenzamide]

IC50 ([4]; Table P2, ASZ cells, Gli1 mRNA, 48 h incubation, read-out: IC50): 0.038 µM
SMILES: C[C@]1(c2ccc(F)cc2F)C[C@H](COc2ccc(N3CCN(c4ccc(NC(=O)c5cccnc5)cc4)CC3)cc2)CO1 [Compound P26, N-(4-(4-(4-(((3R,5R)-5-(2,4-difluorophenyl)-5-methyltetrahydrofuran-3-yl)methoxy)phenyl)piperazin-1-yl)phenyl)nicotinamide]

— US11390613B2, “Azole analogues and methods of use thereof” (UNIVERSITY OF CONNECTICUT, priority 2017, dated 2022)
